Experimental data: article PMC11200976, “Pitavastatin Calcium Confers Fungicidal Properties to Fluconazole by Inhibiting Ubiquinone Biosynthesis and Generating Reactive Oxygen Species” (Antioxidants, 2024)
Structures can show the parent of a compound that is named as a salt. Where two headings read alike, the source gives them in different places.

What was measured:
[1] = test system: C. albicans SC5314, SN152, cmp1-aid∆/cmp1-aid∆, and PADH1-UPC2 strains; assay: FLC disk diffusion assays (25 μg FLC disk, 5 μM adjuvant); format: cell-based, Candida albicans; details: for effect on FLC tolerance in FLC disk diffusion, all four strains: SC5314, SN152, cmp1-aid∆/cmp1-aid∆; for synergistic lethal effects with FLC compared to GdA and CsA (disk diffusion): Figure S3
Procedure: Yeast cells were cultured overnight at a temperature of 30 °C, and the resulting cell suspension was diluted to a concentration of 1 × 10^7 cells/mL in phosphate-buffered saline (PBS). At a concentration of 5 μM, the drugs were individually added to YPD plates for disk assays using a 25 μg FLC disk (6 mm, Liofilchem, Roseto degli Abruzzi, Italy). The plates were then incubated at 30 °C for 48 h. Subsequently, the disk was transferred to a drug-free YPD plate, which was incubated at 30 °C for 24 h and photographed.

[2] = Acute toxicity, Up-and-Down procedure (OECD 425), intraperitoneal; format: in vivo; details: C57BL/6, mouse, in vivo, ip, mice
Procedure: Following a previously described methodology, the intraperitoneal route was employed in adult mice. In brief, the primary test involved a sequential administration of doses at intervals of at least 48 h, with one mouse being dosed at a time. Initially, a dose below LD50 was administered intraperitoneally to a mouse. If the mouse survived, the subsequent mouse would receive 1.3 times the initial dose. Conversely, if the mouse died, the subsequent mouse would receive a dose decreased by 1.3 times the initial dose. Each mouse was monitored for 48 h before determining the subsequent mouse’s dosage and administration. The experiment was terminated upon five “survive or die” reversals within a consecutive set of six animals tested. Subsequently, the LD50 and its corresponding confidence interval were computed based on the conditions observed in all mice after the experiment.

C. albicans [3] = assay: Broth microdilution assay of synergistic lethality with 4 μg/mL FLC (recovery on drug-free YPD); format: cell-based, Candida albicans; details: for synergistic lethal concentration (converts FLC from fungistatic to fungicidal): with 4 μg/mL FLC, tested 100 μM to 0.1953 μM, 30 °C, 48 h
C. albicans [4] = assay: Dose–matrix titration assays (synergy, with YPD recovery plates); format: cell-based, Candida albicans; details: for concentration that renders FLC fungicidal (no recovery on YPD solid medium): FLC ≤4 μg/mL, 30 °C, 48 h; for effect of azole combined with PIT: Figure 5B
Procedure: The synergistic effects of drugs were conducted following the same procedure as the MIC assays. Specifically, 50 μL of drug A was distributed through two-fold serial dilution across seven plate columns. Subsequently, 50 μL of drug B was distributed in a two-fold serial dilution manner along seven rows of the plate. Furthermore, 100 μL of C. albicans cultures, adjusted to a density of 1 × 10^3 cells/mL, was dispensed into wells containing drugs and one control well devoid of any drugs. Before the 48 h OD600 readings, the plates were subjected to meticulous agitation to ensure the deposition of a representative 2 μL aliquot from each well onto newly prepared YPD recovery plates, thereby facilitating the evaluation of cellular recuperation following drug treatments. The recovery plates were subsequently incubated at a temperature of 30 °C for a duration ranging from 24 to 48 h, after which they were photographed. The experimental procedures were conducted in triplicate to ensure reliability and reproducibility.

[5] = concentration of the compound that is synergistically lethal with 4 μg/mL FLC, C. albicans, recovery on drug-free YPD

Compound	Synergistic lethal concentrations (C. albicans [3]; [5])	further results
COC1=C2C[C@@H](C)C[C@H](OC)[C@H](O)[C@@H](C)/C=C(\C)[C@H](OC(N)=O)[C@@H](OC)/C=C\C=C(/C)C(=O)NC(=CC1=O)C2=O [GdA, geldanamycin]		effect on FLC tolerance in FLC disk diffusion, all four strains ([1]; PADH1-UPC2): effectively eradicated the zones of FLC inhibition; LD50 at 48 h [2]: 19 mg/kg
CO[C@H]1C[C@H](O[C@@H]2/C(C)=C/C[C@@H]3C[C@@H](C[C@]4(CC[C@H](C)[C@@H](C5CCCCC5)O4)O3)OC(=O)[C@@H]3C=C(C)/C(=N/O)[C@H]4OC/C(=C\C=C\[C@@H]2C)[C@]43O)O[C@@H](C)[C@@H]1O [Selamectin]		Synergistic lethal concentrations (C. albicans [3]): 12.5 µM
O=C1NCCN1CCN1CCC(c2cn(-c3ccc(F)cc3)c3ccc(Cl)cc23)CC1 [Sertindole]	25 µM	
CN[C@H]1CC[C@@H](c2ccc(Cl)c(Cl)c2)c2ccccc21.Cl [Sertraline (hydrochloride)]	25 µM	
O=C(O)CCC(=O)O.O=C(O[C@H]1CN2CCC1CC2)N1CCc2ccccc2[C@@H]1c1ccccc1 [Solifenacin (Succinate)]	100 µM	
CCOc1ccc(Cc2cc([C@@H]3O[C@H](SC)[C@@H](O)[C@H](O)[C@H]3O)ccc2Cl)cc1 [Sotagliflozin]	100 µM	
CC(C)(C)C(O)/C=C/c1ccc2c(c1)OCO2 (stereo not shown) [Stiripentol]	100 µM	
COc1cc(C)c2c(Oc3cccc(C(F)(F)F)c3)c(OC)cc(NC(C)CCCN)c2n1.O=C(O)CCC(=O)O (stereo not shown) [Tafenoquine (Succinate)]	25 µM	
Cn1ncnc1[C@H]1c2n[nH]c(=O)c3cc(F)cc(c23)N[C@@H]1c1ccc(F)cc1 [Talazoparib tosylate]	100 µM	
CCCCCNC(=N)N/N=C/c1c[nH]c2ccc(OC)cc12.O=C(O)/C=C\C(=O)O [Tegaserod (maleate)]	6.25 µM	
CN(C/C=C/C#CC(C)(C)C)Cc1cccc2ccccc12 [Terbinafine]	6.25 µM	
CC(C)(CO)c1cc2cc(NC(=O)C3(c4ccc5c(c4)OC(F)(F)O5)CC3)c(F)cc2n1C[C@@H](O)CO [Tezacaftor]	100 µM	
CSc1ccc2c(c1)N(CCC1CCCCN1C)c1ccccc1S2.Cl (stereo not shown) [Thioridazine (hydrochloride)]	100 µM	
CCCCCCCCCCCCCCCC[N+](C)(C)CCN(Cc1ccc(OC)cc1)c1ncccn1.[Br-] [Thonzonium (bromide)]	100 µM	
O=C(O)Cc1cc(I)c(Oc2ccc(O)c(I)c2)c(I)c1 [Tiratricol]	100 µM	
Cc1ccc(O)c([C@H](CCN(C(C)C)C(C)C)c2ccccc2)c1 [Tolterodine]	100 µM	
CC(C)OC(=O)CCC/C=C\C[C@@H]1[C@@H](/C=C/[C@@H](O)COc2cccc(C(F)(F)F)c2)[C@H](O)C[C@@H]1O [Travoprost]	100 µM	
Cl.OC(CCN1CCCCC1)(c1ccccc1)C1CCCCC1 (stereo not shown) [Trihexyphenidyl (hydrochloride)]	100 µM	

Compound	Synergistic lethal concentrations (C. albicans [3]; [5])	further results
Cc1onc(-c2ccccc2)c1-c1ccc(S(N)(=O)=O)cc1 [Valdecoxib]	100 µM	
O=C(O)C(c1ccccc1)(c1ccccc1)c1ccccc1.OCc1cc([C@@H](O)CNCCCCCCOCCOCc2c(Cl)cccc2Cl)ccc1O [Vilanterol (trifenatate]	100 µM	
CC1=C(C)C(=O)C(CCCCCCCCCC[P+](c2ccccc2)(c2ccccc2)c2ccccc2)=CC1=O.[Br-] [Visomitin]	50 µM	
C=C/C=C/C[C@@H](C)[C@@H](O)[C@H]1C(=O)N[C@@H](CC)C(=O)N(C)CC(=O)N(C)[C@@H](CC(C)C)C(=O)N[C@@H](C(C)C)C(=O)N(C)[C@@H](CC(C)C)C(=O)N[C@@H](C)C(=O)N[C@H](C)C(=O)N(C)[C@@H](CC(C)C)C(=O)N(C)[C@@H](CC(C)C)C(=O)N(C)[C@@H](C(C)C)C(=O)N1C [Voclosporin]	0.1953 µM	
Br.Cc1ccc(Sc2ccccc2N2CCNCC2)c(C)c1 [Vortioxetine (hydrobromide)]	100 µM	
CC(C)n1nccc1-c1ncccc1COc1cccc(O)c1C=O [Voxelotor]	100 µM	
COCc1c(C(C)C)nc(C(C)C)c(/C=C/[C@@H](O)C[C@@H](O)CC(=O)O)c1-c1ccc(F)cc1 [cerivastatin sodium]		synergistic lethal concentration (converts FLC from fungistatic to fungicidal) (C. albicans [3]): ≤ 6.25 µM; concentration that renders FLC fungicidal (no recovery on YPD solid medium) (C. albicans [4]): ≤ 3.125 µM; effect on FLC tolerance in FLC disk diffusion, all four strains ([1]; PADH1-UPC2): made FLC fungicidal
N=C(NCCCCCCNC(=N)NC(=N)Nc1ccc(Cl)cc1)NC(=N)Nc1ccc(Cl)cc1.O=C(O)[C@H](O)[C@@H](O)[C@H](O)[C@H](O)CO.O=C(O)[C@H](O)[C@@H](O)[C@H](O)[C@H](O)CO [chlorhexidine digluconate]		concentration that renders FLC fungicidal (no recovery on YPD solid medium) (C. albicans [4]): ≤ 3.125 µM; effect on FLC tolerance in FLC disk diffusion, PADH1-UPC2 strain ([1]; PADH1-UPC2): unsuccessful in reducing FLC tolerance
C[C@@H]1CC[C@@]2(OC1)O[C@H]1C[C@H]3[C@@H]4CC=C5C[C@@H](O[C@@H]6O[C@H](CO)[C@@H](O[C@@H]7O[C@@H](C)[C@H](O)[C@@H](O)[C@H]7O)[C@H](O)[C@H]6O[C@@H]6O[C@@H](C)[C@H](O)[C@@H](O)[C@H]6O)CC[C@]5(C)[C@H]4CC[C@]3(C)[C@H]1[C@@H]2C [dioscin]	6.25 µM	concentration that renders FLC fungicidal (no recovery on YPD solid medium) (C. albicans [4]): ≤ 3.125 µM; synergistic lethal effects with FLC compared to GdA and CsA (disk diffusion) [1]: weaker synergistic lethal effects; LD50 at 48 h [2]: 32 mg/kg
CCCCCCCCCCCC[N+](C)(C)CCOc1ccccc1 [domiphen bromide]		concentration that renders FLC fungicidal (no recovery on YPD solid medium) (C. albicans [4]): ≤ 3.125 µM; synergistic lethal effects with FLC compared to GdA and CsA (disk diffusion) [1]: weaker synergistic lethal effects
CC(C)n1c(/C=C/C(O)CC(O)CC(=O)O)c(-c2ccc(F)cc2)c2ccccc21 (stereo not shown) [fluvastatin sodium, reference compound]		synergistic lethal concentration (converts FLC from fungistatic to fungicidal) (C. albicans [3]): ≤ 6.25 µM
CCC(C)n1ncn(-c2ccc(N3CCN(c4ccc(OCC5COC(Cn6cncn6)(c6ccc(Cl)cc6Cl)O5)cc4)CC3)cc2)c1=O (stereo not shown) [itraconazole]		effect of azole combined with PIT (C. albicans [4]): synergistic lethal effects
CC(=O)N1CCN(c2ccc(OCC3COC(Cn4ccnc4)(c4ccc(Cl)cc4Cl)O3)cc2)CC1 (stereo not shown) [ketoconazole]		effect of azole combined with PIT (C. albicans [4]): synergistic lethal effects
Clc1ccc(COC(Cn2ccnc2)c2ccc(Cl)cc2Cl)c(Cl)c1 (stereo not shown) [miconazole]		effect of azole combined with PIT (C. albicans [4]): synergistic lethal effects
CCCCCCCCN=c1ccn(CCCCCCCCCCn2ccc(=NCCCCCCCC)cc2)cc1 [octenidine dihydrochloride]		concentration that renders FLC fungicidal (no recovery on YPD solid medium) (C. albicans [4]): ≤ 3.125 µM; synergistic lethal effects with FLC compared to GdA and CsA (disk diffusion) [1]: weaker synergistic lethal effects
C[C@@H](c1ncncc1F)[C@](O)(Cn1cncn1)c1ccc(F)cc1F [voriconazole]		effect of azole combined with PIT (C. albicans [4]): synergistic lethal effects
ivermectin	3.125 µM	concentration that renders FLC fungicidal (no recovery on YPD solid medium) (C. albicans [4]): ≤ 3.125 µM; synergistic lethal effects with FLC compared to GdA and CsA (disk diffusion) [1]: weaker synergistic lethal effects
